Measured values reported in patent US20250057911A1, “OVARY-TARGETING POLYPEPTIDE, AND DERIVATIVE AND THE USE THEREOF” (SHENZHEN INSTITUTES OF ADVANCEDTECHNOLOGY CHINESE ACADEMY …, priority 2022, published 2025).
Ends that are not written are not given here.

Tests used:
ovary [1] = assay: Mouse ovary-targeting capacity of polypeptide ICG probe (small animal imaging); assay type: in vivo; conditions: adult mice, tail vein injection 100 μL/mouse, imaged after 24 h; FIG. 1
Method: A solution of the polypeptide ICG probe (containing SEQ ID NO: 1) prepared in Example 2, an ICG solution (2 mM), and PBS were injected intravenously into the tail of the adult mice at 100 μL/mouse. After 24 h, the mice were detected under an imager for small animals.

ovary [2] = assay: Mouse ovary-targeting capacity of polypeptide AIE probe (small animal imaging); assay type: in vivo; conditions: adult mice, tail vein injection 100 μL/mouse, imaged after 24 h; FIG. 2
Method: The polypeptide AIE probe (containing SEQ ID NO: 1) prepared in Example 2, a scrambled polypeptide AIE probe, an AIE empty particle, and PBS were injected intravenously into the tail of the adult mice at 100 μL/mouse. After 24 h, the mice were detected under an imager for small animals.

mouse ovary = assay: Localization of polypeptide targeting in mouse ovary (cryosection, laser confocal microscope); assay type: in vivo; conditions: ovaries from Example 4, 10 μm cryosections, DAPI; FIG. 3
Text: To further confirm the localization for the targeting of the polypeptide to the ovary, the four groups of mouse ovaries from Example 4 were fixed with 4% PFA, then cryosectioned (10 μm), stained for cell nuclei (DAPI), and observed for fluorescence localization under a laser confocal microscope.

[3] = tested on: DHT-induced hyperandrogenic female mice; assay: Hyperandrogen dihydrotestosterone (DHT)-induced mouse model, reproductive and metabolic symptoms; assay type: in vivo
Method: (§1) Wild type female mice at postnatal day 25 (D25) were randomly grouped into a control group (CTRL), a DHT group, and a DHT+OCN15 ([…] is the polypeptide set forth in SEQ ID NO: 1) group, with at least 8 mice in each group. The control group was implanted subcutaneously with an empty pump and gavaged with 200 μL of normal saline every day; the DHT group was implanted subcutaneously with a slow-release pump containing 5 mg of dihydrotestosterone (DHT) powder and gavaged with 200 μL of normal saline every day; and the DHT+OCN15 group was implanted subcutaneously with a slow-release pump containing 5 mg of DHT powder and gavaged with 200 μl of normal saline containing the polypeptide (500 μg/Kg) every day. The modeling time was 60 days.

oocytes = assay: Oocyte post-ovulation aging model (in vitro aging in M16 medium); assay type: cell-based, mouse
Method: Wild type female mice were intraperitoneally injected with 5 IU PMSG (pregnant mare serum gonadotropin), followed by an intraperitoneal injection of 5 IU hCG (human chorionic gonadotropin) 48 h later for superovulation. Oocytes were collected after 14 h, and cumulus cells were removed using hyaluronidase. Then, the oocytes were randomly divided into the Aging group and the Aging+OCN15 group and cultured in M16 medium for aging. The Control group was aged for 0 h, the Aging group for 12 h, and the Aging+OCN15 group in M16 containing the polypeptide (1 μg/mL) for 12 h.

DHT model mice liver = assay: Hyperandrogen-induced mouse liver lipid droplet accumulation (HE staining); assay type: in vivo; conditions: DHT+OCN15 treated group vs DHT model mice; FIG. 9
Method: as §1
The method for the induction of the mouse PCOS model by hyperandrogen DHT is described in Example 6. After modeling, the mouse liver was taken, fixed overnight by 4% paraformaldehyde (PFA), dehydrated by alcohol gradient, embedded by paraffin, sectioned (5 μm), and subjected to HE staining for morphological observation.

CC1(C)C(/C=C/C=C/C=C/C=C2\N(CCCCS(=O)(=O)[O-])c3ccc4ccccc4c3C2(C)C)=[N+](CCCCS(=O)(=O)[O-])c2ccc3ccccc3c21.[Na+] [ICG, reference compound]
fluorescent signal at the ovarian site (ovary [1]): do not show a fluorescent signal at the ovarian site

OCN15-AIE: AIE probe containing SEQ ID NO: 1, polypeptide linked to AIE by click chemistry (DBCO linker) (YLGASVPSPDPLEPT; also: AIE probe attached via DBCO click linker, site not given here)
fluorescent signal at the ovarian site (ovary [2]): has a specific signal at the ovarian site
fluorescence localization in the ovary (mouse ovary): mainly targets the interstitial cell and the membrane cell in the mouse ovary

OCN15-ICG: ICG probe containing SEQ ID NO: 1, polypeptide linked to ICG by click chemistry (DBCO linker) (YLGASVPSPDPLEPT; also: ICG dye attached via DBCO click linker, site not given here)
fluorescent signal at the ovarian site (ovary [1]): has a specific signal at the ovarian site

YLGASVPSPDPLEPT [OCN15, mouse metabolite, ovary-targeting polypeptide]
anogenital distance ([3]; 500 μg/Kg gavage daily with DHT pump, 60 days after modeling, FIG. 4C): significantly improved
number of estrous days in ten days ([3]; 500 μg/Kg gavage daily with DHT pump, 60 days modeling, normal above 4 days, hyperandrogenic around 2 days, FIG. 4B): ~3 days
ovarian polycystic changes ([3]; 500 μg/Kg gavage daily with DHT pump, 60 days, FIG. 4A): reduce the polycystic changes
body weight ([3]; 500 μg/Kg gavage daily with DHT pump, FIG. 5A): alleviate the increase in body weight
body weight gain ([3]; 500 μg/Kg gavage daily with DHT pump, FIG. 5B): alleviate the increase in body weight and body weight gain caused by DHT to some extent
weight of gonadal fat ([3]; 500 μg/Kg gavage daily with DHT pump, FIG. 5C): reducing the weight of mouse gonadal fat
lean body mass ([3]; 500 μg/Kg gavage daily with DHT pump, FIG. 5D): increased lean body mass
blood glucose level after oral administration of glucose ([3]; at 30 min after oral glucose, 60 days after modeling, FIG. 4D): significant decrease in blood glucose level compared with the group with DHT alone
androgen receptor AR expression in the epidermal layer of the neck and back skin ([3]; day 60 of modeling, immunofluorescence, FIG. 6B): significantly reduce DHT-caused significant increase of androgen receptor AR expression
hair loss on the neck and back skin ([3]; day 60 of modeling, FIG. 6A): can significantly improve the phenomenon
oocyte fragmentation and degeneration (oocytes; 1 μg/mL polypeptide in M16, 12 h aging, FIG. 7A): ameliorate the fragmentation and degeneration caused by in vitro aging of oocytes
zona pellucida sclerosis (oocytes; 1 μg/mL polypeptide in M16, 12 h aging, FIG. 7B): ameliorate the zona pellucida sclerosis caused by in vitro aging of oocytes
in vitro fertilization rate (oocytes; 1 μg/mL polypeptide in M16, 12 h in vitro aging, FIG. 7C): improve the low fertilization rate caused by in vitro aging of oocytes
liver lipid droplet accumulation (DHT model mice liver): alleviated
